Measured values published in US20080249124A1, “WORTMANNIN-RAPALOG CONJUGATE AND USES THEREOF” (Wyeth, priority 2007, published 2008).
pIC50: −log10 of the molar value.

Key:
C3H mammary model = conditions: cited from earlier work
PI3K = conditions: cited from earlier work
[1] = system: U87MG (human glioblastoma) tumor; assay: Xenograft tumor efficacy study; format: in vivo; conditions: female nude mice; for tumor size versus control and single reference compounds: 15 mg/kg IV on day 0 and day 7, D5W vehicle; for tumor size versus mixture of reference compounds 1 and 2: 15 mg/kg IV on day 0 and day 7, mixture 10 mg/kg/5 mg/kg
Protocol: Female nude mice at 10 weeks of age were inoculated subcutaneously on the flank with 200 μL U87MG (human glioblastoma) tumor cell suspension. U87MG cells were suspended in full growth media and were implanted at 10 million cells per mouse. Mice were staged when tumors reached approximately 200 mm^3 in sizes. Tumor bearing mice at staging (day 0) were randomized into treatment groups (n=10). The conjugates described herein were formulated in D5W vehicle (glucose-water) and were dosed IV on day 0 and day 7. See, Table 6.
The growth of tumors was monitored twice a week for the duration of the experiment. Tumor size was measured using sliding vernier calipers, and the tumor mass was calculated using the formula (length×Width^2)/2.

tumor xenografts = conditions: animals; cited from earlier work

COCC1OC(=O)c2coc3c2C1(C)C1=C(C3=O)C2CCC(O)C2(C)CC1OC(C)=O (stereo not drawn) [17β-Hydroxywortmannin]
anti-tumor activity (C3H mammary model; dose of 0.5 mg/kg): no inhibition
toxicity (C3H mammary model; dose of 1.0 mg/kg): toxicity
increase in activity relative to wortmannin (PI3K; PI3K): 10 fold
pIC50 (PI3K): 9.30

COC[C@H]1OC(=O)/C(=C/N(C)CCCN(C)C)C2=C(O)C(=O)C3=C([C@H](OC(C)=O)C[C@@]4(C)C3CC[C@@H]4OC(=O)CCCCCCC(=O)O[C@H]3CC[C@H](C[C@@H](C)[C@@H]4CC(=O)[C@H](C)/C=C(\C)[C@@H](O)[C@@H](OC)C(=O)[C@H](C)C[C@H](C)/C=C/C=C/C=C(\C)[C@@H](OC)C[C@@H]5CC[C@@H](C)[C@@](O)(O5)C(=O)C(=O)N5CCCC[C@H]5C(=O)O4)CC3)[C@]21C (stereo partly shown) [Example 2b, N,N,N′-trimethyl-1,3-propanediamine adduct of 42,17′-linked 41-Desmethoxyrapamycin-Suberate-Wortmannin conjugate]
tumor size versus control and single reference compounds [1]: smaller tumors than tumors treated with control or with reference compound 1 or reference compound
tumor size versus mixture of reference compounds 1 and 2 [1]: tumors of comparable size to that achieved with a mixture of reference compounds 1 and 2

COC[C@H]1OC(=O)c2coc3c2[C@@]1(C)C1=C(C3=O)[C@@H]2CCC(=O)[C@@]2(C)C[C@H]1OC(C)=O [Wortmannin]
antitumor activity against tumor xenografts (tumor xenografts): antitumor activity against tumor xenografts in animals
PI3K inhibition (PI3K): irreversible inhibitor, at nanomolar concentrations

Diallylamine Adduct of 42,17′-linked 41-Desmethoxyrapamycin-Suberate-Wortmannin Conjugate [Example 2a]
tumor size versus control and single reference compounds [1]: smaller tumors than tumors treated with control or with reference compound 1 or reference compound

diallylamine adduct of 17-hydroxywortmannin [compound 2]
tumor size versus mixture of reference compounds 1 and 2 [1]: tumors of comparable size to that achieved with a mixture of reference compounds 1 and 2
